Measured values: ChEMBL document CHEMBL4177573 (Bioorg Med Chem, 2017)
pEC50, pIC50: −log10 of the molar value. Square brackets hold non-standard residues; d marks the D form. Peptide text beside a SMILES is read from it. Cha = N[C@@H](CC1CCCCC1)C(=O)O; Aib = CC(C)(N)C(=O)O

Tests used:
[1] = MRT in C57BL/6J mouse at 1 mg/kg, sc measured during 5 mins to 24 hrs by LC/MS/MS method; format: ADME, organism-based; conditions: in vivo
[2] = Volume of distribution at steady state in C57BL/6J mouse at 1 mg/kg, iv measured during 5 mins to 24 hrs by LC/MS/MS method; format: ADME, organism-based; conditions: in vivo, read-out: Vdss
[3] = Cmax in C57BL/6J mouse at 1 mg/kg, sc measured during 5 mins to 24 hrs by LC/MS/MS method; format: ADME, organism-based; design: dose 1 mg/kg, route subcutaneous; conditions: in vivo
[4] = biological target: T1, Neuropeptide Y receptor type 2 (Homo sapiens, UniProt P49146); assay: Agonist activity at human neuropeptide Y2 receptor expressed in CHO cell membranes assessed as stimulation of [35S]GTPgammaS binding incubated for 120 mins by liquid scintillation counting method; format: functional
T1 sequence (P49146 whole entry): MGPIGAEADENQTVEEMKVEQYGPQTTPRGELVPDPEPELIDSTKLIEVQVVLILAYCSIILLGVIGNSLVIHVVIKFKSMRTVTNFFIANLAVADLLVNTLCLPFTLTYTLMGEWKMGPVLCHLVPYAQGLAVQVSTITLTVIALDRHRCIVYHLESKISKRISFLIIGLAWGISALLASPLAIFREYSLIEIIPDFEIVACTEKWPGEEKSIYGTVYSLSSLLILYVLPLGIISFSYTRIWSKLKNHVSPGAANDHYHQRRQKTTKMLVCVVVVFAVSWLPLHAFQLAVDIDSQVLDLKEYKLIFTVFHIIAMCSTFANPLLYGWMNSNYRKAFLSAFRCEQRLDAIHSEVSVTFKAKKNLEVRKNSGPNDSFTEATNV

Mus musculus [5] = assay: Anorectic activity in C57BL/6J mouse assessed as inhibition of food intake at 0.3 mg/kg/day, sc dosed as […] and measured after 12 hrs; format: functional
[6] = Bioavailability in C57BL/6J mouse at 1 mg/kg, sc measured during 5 mins to 24 hrs by LC/MS/MS method; format: ADME, organism-based; conditions: in vivo
Mus musculus [7] = assay: Drug level in C57BL/6J mouse at 1 mg/kg, iv measured during 5 mins to 24 hrs by LC/MS/MS method; format: ADME, organism-based; conditions: in vivo, read-out: Drug uptake
[8] = Tmax in C57BL/6J mouse at 1 mg/kg, sc measured during 5 mins to 24 hrs by LC/MS/MS method; format: ADME, organism-based; conditions: in vivo
Mus musculus [9] = assay: Anorectic activity in C57BL/6J mouse assessed as inhibition of food intake at 0.03 mg/kg/day, sc for 3 days dosed as continuous administration by infusion using osmotic pump; format: functional; conditions: 72 h
[10] = MRT in C57BL/6J mouse at 1 mg/kg, iv measured during 5 mins to 24 hrs by LC/MS/MS method; format: ADME, organism-based; conditions: in vivo
[11] = AUC (0 to 24 hrs) in C57BL/6J mouse at 1 mg/kg, iv measured during 5 mins to 24 hrs by LC/MS/MS method; format: ADME, organism-based; design: dose 1 mg/kg, time < 24 hr, route intravenous; conditions: in vivo
[12] = AUC (0 to 24 hrs) in C57BL/6J mouse at 1 mg/kg, sc measured during 5 mins to 24 hrs by LC/MS/MS method; format: ADME, organism-based; design: time < 24 hr, dose 1 mg/kg, route subcutaneous; conditions: in vivo
Mus musculus [13] = assay: Anorectic activity in C57BL/6J mouse assessed as inhibition of food intake at 0.3 mg/kg/day, sc dosed as […] and measured after 24 hrs; format: functional
[14] = Total clearance in C57BL/6J mouse at 1 mg/kg, iv measured during 5 mins to 24 hrs by LC/MS/MS method; format: ADME, organism-based; conditions: in vivo
[15] = biological target: T1, Neuropeptide Y receptor type 2; assay: Displacement of [125I]-PYY from human neuropeptide Y2 receptor expressed in CHO cell membranes incubated for 60 mins by TopCount based method
Mus musculus [16] = assay: Anorectic activity in C57BL/6J mouse assessed as inhibition of food intake at 0.1 mg/kg/day, sc for 3 days dosed as continuous administration by infusion using osmotic pump; format: functional; conditions: 72 h
Mus musculus [17] = assay: Anorectic activity in C57BL/6J mouse assessed as inhibition of food intake at 0.3 mg/kg/day, sc for 3 days dosed as continuous administration by infusion using osmotic pump; format: functional; conditions: 72 h
Mus musculus [18] = assay: Anorectic activity in C57BL/6J mouse assessed as inhibition of food intake at 1 mg/kg/day, sc for 3 days dosed as continuous administration by infusion using osmotic pump; format: functional; conditions: 72 h
Mus musculus [19] = assay: Antiobesity activity in DIO C57BL/6J mouse assessed as reduction in body weight at 0.01 mg/kg, sc for 2 weeks dosed as continuous administration by infusion of osmotic pumps; format: functional; conditions: 336 h
Mus musculus [20] = assay: Antiobesity activity in DIO C57BL/6J mouse assessed as reduction in body weight at 1 mg/kg, sc […] for 2 weeks dosed by infusion of osmotic pumps; format: functional; conditions: 336 h

SMILES | pEC50 [4] | inhibition in vivo at 0.3 mg/kg/day (Mus musculus [5]) | inhibition in vivo at 0.03 mg/kg/day (Mus musculus [9]) | inhibition in vivo at 0.3 mg/kg/day (Mus musculus [13]) | pIC50 [15] | inhibition in vivo at 0.1 mg/kg/day (Mus musculus [16]) | inhibition in vivo at 1 mg/kg/day (Mus musculus [18]) | also measured
CC[C@](C)(NC(=O)[C@H]1CCCN1C(=O)[C@H](CO)NC(C)=O)C(=O)N[C@@H](Cc1ccncc1)C(=O)N[C@@H](CC1CCCCC1)C(=O)NC(C)(C)C(=O)N[C@@H](CC(N)=O)C(=O)N[C@@H](CCCCN)C(=O)NC(C)(C)C(=O)N[C@H](C(=O)N[C@@H](CCCNC(=N)N)C(=O)N[C@@H](CCC(N)=O)C(=O)N[C@@H](CCCNC(=N)N)C(=O)N[C@@H](CC1CCCCC1)C(N)=O)[C@@H](C)O | 9.55 | 22% | 46% | 7% | 8.74 | 68% | – | MRT [1]: 22.2 min; Vd [2]: 0.5 L/kg; Cmax [3]: 227 nM; bioavailability [6]: 53.7%; concentration (Mus musculus [7]): 1270 nM; Tmax [8]: 15 min; MRT [10]: 12 min; AUC(0-t) at 24 h [11]: 0.232 µM·h; AUC(0-t) at 24 h [12]: 0.125 µM·h; clearance [14]: 41 mL/min/kg
CC[C@@](C)(NC(=O)[C@H]1CCCN1C(=O)[C@H](CO)NC(C)=O)C(=O)N[C@@H](Cc1cnc[nH]1)C(=O)N[C@@H](CC1CCCCC1)C(=O)N[C@@H](CC1CCCCC1)C(=O)N[C@@H](CC(N)=O)C(=O)N[C@@H](CC(C)C)C(=O)NC(C)(C)C(=O)N[C@H](C(=O)N[C@@H](CCCNC(=N)N)C(=O)N[C@@H](CCC(N)=O)C(=O)N[C@@H](CCCNC(=N)N)C(=O)N[C@@H](CC1CCCCC1)C(N)=O)[C@@H](C)O | 9.30 | – | – | – | 8.42 | – | – | inhibition in vivo at 0.3 mg/kg/day (Mus musculus [17]): 33%
CC(C)C[C@H](NC(=O)[C@H](CC(N)=O)NC(=O)[C@H](CC1CCCCC1)NC(=O)[C@H](CC1CCCCC1)NC(=O)[C@H](Cc1cnc[nH]1)NC(=O)[C@H](CCCNC(=N)N)NC(=O)[C@H]1CCCN1C(=O)[C@H](CO)NC(=O)C(C)C)C(=O)NC(C)(C)C(=O)N[C@H](C(=O)N[C@@H](CCCNC(=N)N)C(=O)N[C@@H](CCC(N)=O)C(=O)N[C@@H](CCCNC(=N)N)C(=O)N[C@@H](CC1CCCCC1)C(N)=O)[C@@H](C)O | 9.31 | – | – | – | 8.89 | – | 46% | –
CC(=O)N[C@@H](CO)C(=O)N1CCC[C@@H]1C(=O)N[C@@H](CCCNC(=N)N)C(=O)N[C@@H](Cc1ccncc1)C(=O)N[C@@H](CC1CCCCC1)C(=O)NC(C)(C)C(=O)N[C@@H](CC(N)=O)C(=O)N[C@@H](CCCCN)C(=O)NC(C)(C)C(=O)N[C@H](C(=O)N[C@@H](CCCNC(=N)N)C(=O)N[C@@H](CCC(N)=O)C(=O)N[C@@H](CCCNC(=N)N)C(=O)N[C@@H](CC1CCCCC1)C(N)=O)[C@@H](C)O | – | 35% | 38% | 15% | – | 80% | – | inhibition in vivo at 0.3 mg/kg/day (Mus musculus [17]): 112%; concentration (Mus musculus [7]): 1060 nM
CC(C)C[C@H](NC(=O)[C@H](CC(N)=O)NC(=O)[C@H](CC1CCCCC1)NC(=O)[C@H](CC1CCCCC1)NC(=O)[C@H](Cc1cnc[nH]1)NC(=O)[C@H](CCCNC(=N)N)NC(=O)[C@H]1CCCN1C(=O)[C@H](CO)NC(=O)CCC(=O)O)C(=O)NC(C)(C)C(=O)N[C@H](C(=O)N[C@@H](CCCNC(=N)N)C(=O)N[C@@H](CCC(N)=O)C(=O)N[C@@H](CCCNC(=N)N)C(=O)N[C@@H](CC1CCCCC1)C(N)=O)[C@@H](C)O | 9.40 | – | – | – | 8.64 | – | 103% | –
CC[C@](C)(NC(=O)[C@H]1CCCN1C(=O)[C@H](CO)NC(C)=O)C(=O)N[C@@H](Cc1cnc[nH]1)C(=O)N[C@@H](CC1CCCCC1)C(=O)N[C@@H](CC1CCCCC1)C(=O)N[C@@H](CC(N)=O)C(=O)N[C@@H](CC(C)C)C(=O)NC(C)(C)C(=O)N[C@H](C(=O)N[C@@H](CCCNC(=N)N)C(=O)N[C@@H](CCC(N)=O)C(=O)N[C@@H](CCCNC(=N)N)C(=O)N[C@@H](CC1CCCCC1)C(N)=O)[C@@H](C)O | 8.70 | – | – | – | 7.80 | – | – | inhibition in vivo at 0.3 mg/kg/day (Mus musculus [17]): 2%
CC[C@@](C)(NC(=O)[C@H](CO)NC(C)=O)C(=O)N[C@@H](CCCNC(=N)N)C(=O)N[C@@H](Cc1ccncc1)C(=O)N[C@@H](CC1CCCCC1)C(=O)NC(C)(C)C(=O)N[C@@H](CC(N)=O)C(=O)N[C@@H](CCCCN)C(=O)NC(C)(C)C(=O)N[C@H](C(=O)N[C@@H](CCCNC(=N)N)C(=O)N[C@@H](CCC(N)=O)C(=O)N[C@@H](CCCNC(=N)N)C(=O)N[C@@H](CC1CCCCC1)C(N)=O)[C@@H](C)O | 9.96 | – | 25% | – | 9.52 | 64% | – | –
CC(=O)N[C@@H](CO)C(=O)N1CCC[C@@H]1C(=O)N[C@@H](CCCNC(=N)N)C(=O)N[C@@H](Cc1cnc[nH]1)C(=O)N[C@@H](CC1CCCCC1)C(=O)N[C@@H](CC1CCCCC1)C(=O)N[C@@H](CC(N)=O)C(=O)N[C@@H](CC(C)C)C(=O)NC(C)(C)C(=O)N[C@H](C(=O)N[C@@H](CCCNC(=N)N)C(=O)N[C@@H](CCC(N)=O)C(=O)N[C@@H](CCCNC(=N)N)C(=O)N[C@@H](CC1CCCCC1)C(N)=O)[C@@H](C)O (Ac-S[dP]RH[Cha][Cha]NL[Aib]TRQR[Cha]-NH2) | – | – | – | – | – | – | 33% | –
CC(C)C[C@H](NC(=O)[C@H](CC(N)=O)NC(=O)[C@H](CC1CCCCC1)NC(=O)[C@H](CC1CCCCC1)NC(=O)[C@H](Cc1cnc[nH]1)NC(=O)[C@H](CCCNC(=N)N)NC(=O)[C@H]1CCCN1C(=O)[C@H](CO)NC(=O)c1ccccc1)C(=O)NC(C)(C)C(=O)N[C@H](C(=O)N[C@@H](CCCNC(=N)N)C(=O)N[C@@H](CCC(N)=O)C(=O)N[C@@H](CCCNC(=N)N)C(=O)N[C@@H](CC1CCCCC1)C(N)=O)[C@@H](C)O | 9.10 | – | – | – | 8.82 | – | 7% | –
CC[C@](C)(NC(=O)[C@H](CC1CCCCC1)NC(=O)[C@H](Cc1ccncc1)NC(=O)[C@H](CCCNC(=N)N)NC(=O)[C@H]1CCCN1C(=O)[C@H](CO)NC(C)=O)C(=O)N[C@@H](CC(N)=O)C(=O)N[C@@H](CCCCN)C(=O)NC(C)(C)C(=O)N[C@H](C(=O)N[C@@H](CCCNC(=N)N)C(=O)N[C@@H](CCC(N)=O)C(=O)N[C@@H](CCCNC(=N)N)C(=O)N[C@@H](CC1CCCCC1)C(N)=O)[C@@H](C)O | 9.85 | 41% | 36% | 23% | 9.80 | 85% | – | –
CC[C@](C)(NC(=O)[C@H](CC1CCCCC1)NC(=O)[C@H](Cc1ccncc1)NC(=O)[C@](C)(CC)NC(=O)[C@H]1C[C@H](O)CN1C(=O)[C@H](CO)NC(C)=O)C(=O)N[C@@H](CC(N)=O)C(=O)N[C@@H](CCCCN)C(=O)NC(C)(C)C(=O)N[C@H](C(=O)N[C@@H](CCCNC(=N)N)C(=O)N[C@@H](CCC(N)=O)C(=O)N[C@@H](CCCNC(=N)N)C(=O)N[C@@H](CC1CCCCC1)C(N)=O)[C@@H](C)O | 9.77 | 38% | 56% | 23% | 9.34 | – | – | MRT [1]: 31.2 min; Vd [2]: 0.41 L/kg; Cmax [3]: 666 nM; bioavailability [6]: 108%; inhibition in vivo at 0.01 mg/kg (Mus musculus [19]): 5%; concentration (Mus musculus [7]): 1660 nM; Tmax [8]: 15 min; MRT [10]: 21 min; AUC(0-t) at 24 h [11]: 0.435 µM·h; AUC(0-t) at 24 h [12]: 0.469 µM·h; clearance [14]: 19.5 mL/min/kg; inhibition in vivo at 1 mg/kg (Mus musculus [20]): 1.7%
